From patent publication US9084422B2, “Anthranilamides compositions” (E I DU PONT DE NEMOURS AND COMPANY, priority 2001, dated 2015) come the findings set out here.

The subject of the test is tobacco budworm (Heliothis virescens). The test is described as follows: Test H: soil systemic control of tobacco budworm on cotton. The settings on record: soil treatment at 10 ppm. Format: in vivo. How it is done: For evaluating soil systemic control of tobacco budworm (Heliothis virescens), cotton plants were grown in sassafras soil in 15-cm pots in aluminum trays. When the plants reached square stage (bud formation on the plant) the plants were treated with the test compounds.
Test compounds were formulated in 0.25 mL of acetone and then diluted with water to provide solutions of 1, 5, 10 and 50 ppm. 10 mL of the treatment solutions were added to the pots weekly for four weeks, with four replicates of each treatment rate. One day after the second, third and fourth treatments, 35-50 first instar Heliothis virescens larvae were brushed on each plant with paintbrushes and placed on the terminal area, squares, and bolls. Five days after the last infestation with larvae the plants were rated for damage. Of the compounds tested, the following provided excellent levels of plant protection at 10 ppm (10% or less feeding damage): 16.

For the compound `Cc1cc(Br)cc(C(=O)NC(C)C)c1NC(=O)c1cc(Br)nn1-c1ncccc1Cl` [Compound 16], the “protection of squares and bolls” value is “no feeding or minimal sepal damage”. Further, the “feeding damage (excellent levels of plant protection)” value (10 mL weekly for four weeks, rated five days after last infestation) is at most 10%.
